This note sets out measurements from patent publication EP4813977A1, “NOVEL COMPOUND AND USE THEREOF” (Protier Biotech Inc., priority 2023, dated 2025).

As usually defined, the GI50 is the concentration at which growth is held to half of that of the control. Read a high GI50 as lower sensitivity of the cells.

Assay [1] deals with T-cell leukemia cell line Jurkat. Briefly: Cell viability assay (Cell Counting Kit-8), Jurkat. In kind it is cell-based. As to conditions: Homo sapiens, 72 hours, CCK-8, absorbance 450 nm.
Assay [2] relates to human acute monocytic leukemia cell line MV-4-11. Briefly: Cell viability assay (Cell Counting Kit-8), MV-4-11. As to conditions: MV4-11, 72 hours, CCK-8, absorbance 450 nm. The class given is cell-based. The procedure: (§1) To evaluate the cytotoxicity of the compounds synthesized in the Preparation Examples against cancer cells, a cell viability assay following treatment with the synthesized compounds was performed using a T-cell leukemia cell line Jurkat (KCLB, Cat# 40152), a human acute monocytic leukemia cell line MV-4-11 (ATCC, Cat# CRL-9591), and a human multiple myeloma cell line MM.1S (ATCC, Cat# CRL-2974).
(§2) As a culture medium for the cell lines, an RPMI medium containing 10 % heat-inactivated FBS and 1 % penicillin/streptomycin (P/S) antibiotics was used. The culture medium was stored refrigerated and warmed in a 37 °C water bath before use. Each cell line was used for the test after a stabilization period of at least 2 weeks after thawing, and cell culture was performed based on information provided by the cell line manufacturer regarding the thawing and subculture conditions.
(§3) The Jurkat, MV-4-11, or MM.1S cell line was seeded in a 96-well plate at a density of 1 × 10^4 cells/well and incubated in a 37 °C CO2 incubator overnight. After incubation, a prepared test compound was applied to each cell line, and the cells were incubated in a 37 °C CO2 incubator for 72 hours. After 72 hours of incubation, a Cell Counting Kit-8 (Dojindo, Cat# CK04-20) reagent was added, and the cells were incubated in a 37 °C CO2 incubator. Then, the absorbance was measured at 450 nm using a SpectraMax M3 Microplate Reader (N=2, duplicate measurement). The evaluation concentrations for evaluating the cytotoxicity of the compounds were 10 points: 100 µM, 20 µM, 4 µM, 0.8 µM, 0.16 µM, 0.032 µM, 0.0064 µM, 0.00128 µM, 0.000256 µM, and 0 µM, and the test was performed at 2 wells/concentration point (n=2). A GI50 was derived using a GraphPad Prism program.
For orientation: Tetrazolium dyes change colour on reduction, which living cells bring about.

Assay [3] deals with human multiple myeloma cell line MM.1S. Kind of assay: Cell viability assay (Cell Counting Kit-8), MM.1S. As to conditions: MM1.S, 72 hours, CCK-8, absorbance 450 nm. The class given is cell-based. The procedure: as §1, §2, §3
The target of assay [4] is T1, Cereblon (CRBN) protein (Homo sapiens, UniProt Q96SW2).
T1 construct: purchased Eurofins (E3scan service); host or cells: HEK-293
Briefly: CRBN binding affinity, E3scan (Eurofins) competition binding with qPCR read-out. As to conditions: lower % Ctrl = stronger binding, DMSO = 100 % Ctrl, lenalidomide = 0 % Ctrl. As for the experimental part: Specifically, CRBN was produced using a HEK-293 cell line and labeled with DNA for qPCR detection. Streptavidin-coated magnetic beads were treated with a biotinylated small-molecule ligand at room temperature for 30 minutes to generate an affinity resin for E3scan analysis. The liganded beads were blocked with excess biotin and washed with a blocking buffer (SeaBlock (Pierce), 1 % BSA, 0.05 % Tween 20, 1 mM DTT) to remove unbound ligands and prevent non-specific binding. […] The test compound was prepared as a 100× stock in 100 % DMSO and diluted directly into the assay solution. All reactions were performed in a polypropylene 384-well plate with a final reaction volume of 0.02 mL. […] The CRBN concentration in the eluate was measured by qPCR. […] A lower '% Ctrl' indicates a stronger binding affinity. […] ((test compound signal−positive control signal)/(negative control signal−positive control signal)) × 100 [formula]
(Real-time PCR tracks product formation cycle by cycle.)

Turning to `O=C1CCC(N2Cc3cc(C(=O)c4n[nH]c5ccccc45)ccc3C2=O)C(=O)N1` (stereo not drawn) [Compound 17, 3-(5-(1H-indazole-3-carbonyl)-1-oxoisoindolin-2-yl)piperidine-2,6-dione], the GI50 is 0.1 to 1 µM in assay [1], at most 0.1 µM in assay [2] and at most 0.1 µM in assay [3]. Besides, the “CRBN binding affinity (% Ctrl @ 5µM)” value in assay [4] is recorded as “A (0 ≤ '% Ctrl' < 0.1)”.
On to `O=C1CCC(N2Cc3cc(C(=O)c4ccc5cn[nH]c5c4)ccc3C2=O)C(=O)N1` (stereo not drawn) [Compound 21, 3-(5-(1H-indazole-6-carbonyl)-1-oxoisoindolin-2-yl)piperidine-2,6-dione], for which the results for the GI50 in assay [1], in assay [2] and in assay [3] were 0.1 to 1 µM, above 10 µM and 1 to 10 µM, respectively. In assay [4], the “CRBN binding affinity (% Ctrl @ 5µM)” value was “A (0 ≤ '% Ctrl' < 0.1)”.
Consider `CNc1ccc2cc(C(=O)c3ccc4c(c3)CN(C3CCC(=O)NC3=O)C4=O)[nH]c2c1` (stereo not drawn) [Compound 22, 3-(5-(6-(methylamino)-1H-indole-2-carbonyl)-1-oxoisoindolin-2-yl)piperidine-2,6-dione], for which the GI50 in assay [1], in assay [2] and in assay [3] was at most 0.1 µM in each case. Moreover, the “CRBN binding affinity (% Ctrl @ 5µM)” value in assay [4] is given as “A (0 ≤ '% Ctrl' < 0.1)”.
